Laboratory results from publication PMC8333425, “Discovery of a dual Ras and ARF6 inhibitor from a GPCR endocytosis screen” (Nature Communications, 2021).

How the values were obtained:
Assay in all cases: KINOMEscan kinase binding assay
[1] = molecular target: T1, 384 kinases from the human genome (Homo sapiens, UniProt O15075); conditions: kinase DCAMKL1 (Entrez DCLK1)
T1 construct: purchased Eurofin/DiscoverX
Outline: (§1)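 Competition binding (KINOMEscan) across 384 human kinases with compound at 10 µM. Ligand binding was expressed relative to DMSO (100%) as the average of duplicates from one experiment. S(10) selectivity score was derived.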

[2] = molecular target: T2, 384 kinases from the human genome (Homo sapiens, UniProt O94768); conditions: kinase DRAK2 (Entrez STK17B)
T2 construct: purchased Eurofin/DiscoverX
Outline: as §1

[3] = molecular target: T3, 384 kinases from the human genome (Homo sapiens, UniProt O94921); conditions: kinase PFTK1 (Entrez CDK14)
T3 construct: purchased Eurofin/DiscoverX
Outline: as §1

[4] = molecular target: T4, 384 kinases from the human genome (Homo sapiens, UniProt O95747); conditions: kinase OSR1 (Entrez OXSR1)
T4 construct: purchased Eurofin/DiscoverX
Outline: as §1

[5] = molecular target: T5, 384 kinases from the human genome (Homo sapiens, UniProt P04049); conditions: kinase RAF1 (Entrez RAF1)
T5 construct: purchased Eurofin/DiscoverX
Outline: as §1

[6] = molecular target: T6, 384 kinases from the human genome (Homo sapiens, UniProt P07333)
T6 construct: purchased Eurofin/DiscoverX
Outline: as §1

[7] = molecular target: T7, 384 kinases from the human genome (Homo sapiens, UniProt P21709); conditions: kinase EPHA1 (Entrez EPHA1)
T7 construct: purchased Eurofin/DiscoverX
Outline: as §1

[8] = molecular target: T8, 384 kinases from the human genome (Homo sapiens, UniProt P42338); conditions: kinase PIK3CB (Entrez PIK3CB)
T8 construct: purchased Eurofin/DiscoverX
Outline: as §1

[9] = molecular target: T9, 384 kinases from the human genome (Homo sapiens, UniProt P43405); conditions: kinase SYK (Entrez SYK)
T9 construct: purchased Eurofin/DiscoverX
Outline: as §1

[10] = molecular target: T10, 384 kinases from the human genome (Homo sapiens, UniProt P53779); conditions: kinase JNK3 (Entrez MAPK10)
T10 construct: purchased Eurofin/DiscoverX
Outline: as §1

[11] = molecular target: T11, 384 kinases from the human genome (Homo sapiens, UniProt Q08345); conditions: kinase DDR1 (Entrez DDR1)
T11 construct: purchased Eurofin/DiscoverX
Outline: as §1

[12] = molecular target: T12, 384 kinases from the human genome (Homo sapiens, UniProt Q14012); conditions: kinase CAMK1 (Entrez CAMK1)
T12 construct: purchased Eurofin/DiscoverX
Outline: as §1

[13] = molecular target: T13, 384 kinases from the human genome (Homo sapiens, UniProt Q15569); conditions: kinase TESK1 (Entrez TESK1)
T13 construct: purchased Eurofin/DiscoverX
Outline: as §1

[14] = molecular target: T14, 384 kinases from the human genome (Homo sapiens, UniProt Q15759); conditions: kinase p38-beta (Entrez MAPK11)
T14 construct: purchased Eurofin/DiscoverX
Outline: as §1

[15] = molecular target: T15, 384 kinases from the human genome (Homo sapiens, UniProt Q16816); conditions: kinase PHKG1 (Entrez PHKG1)
T15 construct: purchased Eurofin/DiscoverX
Outline: as §1

[16] = molecular target: T16, 384 kinases from the human genome (Homo sapiens, UniProt Q32MK0); conditions: kinase MLCK (Entrez MYLK3)
T16 construct: purchased Eurofin/DiscoverX
Outline: as §1

[17] = molecular target: T17, 384 kinases from the human genome (Homo sapiens, UniProt Q7L7X3); conditions: kinase TAOK1 (Entrez TAOK1)
T17 construct: purchased Eurofin/DiscoverX
Outline: as §1

[18] = molecular target: T18, 384 kinases from the human genome (Homo sapiens, UniProt Q86Y07); conditions: kinase VRK2 (Entrez VRK2)
T18 construct: purchased Eurofin/DiscoverX
Outline: as §1

[19] = molecular target: T19, 384 kinases from the human genome (Homo sapiens, UniProt Q8IW41); conditions: kinase MAPKAPK5 (Entrez MAPKAPK5)
T19 construct: purchased Eurofin/DiscoverX
Outline: as §1

[20] = molecular target: T20, 384 kinases from the human genome (Homo sapiens, UniProt Q8TDR2); conditions: kinase STK35 (Entrez STK35)
T20 construct: purchased Eurofin/DiscoverX
Outline: as §1

[21] = molecular target: T21, 384 kinases from the human genome (Homo sapiens, UniProt Q92772); conditions: kinase CDKL2 (Entrez CDKL2)
T21 construct: purchased Eurofin/DiscoverX
Outline: as §1

[22] = molecular target: T22, 384 kinases from the human genome (Homo sapiens, UniProt Q99640); conditions: kinase PKMYT1 (Entrez PKMYT1)
T22 construct: purchased Eurofin/DiscoverX
Outline: as §1

[23] = molecular target: T23, 384 kinases from the human genome (Homo sapiens, UniProt Q9BQI3); conditions: kinase EIF2AK1 (Entrez EIF2AK1)
T23 construct: purchased Eurofin/DiscoverX
Outline: as §1

[24] = molecular target: T24, 384 kinases from the human genome (Homo sapiens, UniProt Q9NRP7); conditions: kinase STK36 (Entrez STK36)
T24 construct: purchased Eurofin/DiscoverX
Outline: as §1

[25] = molecular target: T25, 384 kinases from the human genome (Homo sapiens, UniProt Q9UHD2); conditions: kinase TBK1 (Entrez TBK1)
T25 construct: purchased Eurofin/DiscoverX
Outline: as §1

[26] = molecular target: T26, 384 kinases from the human genome (Homo sapiens, UniProt Q9Y2U5); conditions: kinase MAP3K2 (Entrez MAP3K2)
T26 construct: purchased Eurofin/DiscoverX
Outline: as §1

T6 sequence (P07333 20-972): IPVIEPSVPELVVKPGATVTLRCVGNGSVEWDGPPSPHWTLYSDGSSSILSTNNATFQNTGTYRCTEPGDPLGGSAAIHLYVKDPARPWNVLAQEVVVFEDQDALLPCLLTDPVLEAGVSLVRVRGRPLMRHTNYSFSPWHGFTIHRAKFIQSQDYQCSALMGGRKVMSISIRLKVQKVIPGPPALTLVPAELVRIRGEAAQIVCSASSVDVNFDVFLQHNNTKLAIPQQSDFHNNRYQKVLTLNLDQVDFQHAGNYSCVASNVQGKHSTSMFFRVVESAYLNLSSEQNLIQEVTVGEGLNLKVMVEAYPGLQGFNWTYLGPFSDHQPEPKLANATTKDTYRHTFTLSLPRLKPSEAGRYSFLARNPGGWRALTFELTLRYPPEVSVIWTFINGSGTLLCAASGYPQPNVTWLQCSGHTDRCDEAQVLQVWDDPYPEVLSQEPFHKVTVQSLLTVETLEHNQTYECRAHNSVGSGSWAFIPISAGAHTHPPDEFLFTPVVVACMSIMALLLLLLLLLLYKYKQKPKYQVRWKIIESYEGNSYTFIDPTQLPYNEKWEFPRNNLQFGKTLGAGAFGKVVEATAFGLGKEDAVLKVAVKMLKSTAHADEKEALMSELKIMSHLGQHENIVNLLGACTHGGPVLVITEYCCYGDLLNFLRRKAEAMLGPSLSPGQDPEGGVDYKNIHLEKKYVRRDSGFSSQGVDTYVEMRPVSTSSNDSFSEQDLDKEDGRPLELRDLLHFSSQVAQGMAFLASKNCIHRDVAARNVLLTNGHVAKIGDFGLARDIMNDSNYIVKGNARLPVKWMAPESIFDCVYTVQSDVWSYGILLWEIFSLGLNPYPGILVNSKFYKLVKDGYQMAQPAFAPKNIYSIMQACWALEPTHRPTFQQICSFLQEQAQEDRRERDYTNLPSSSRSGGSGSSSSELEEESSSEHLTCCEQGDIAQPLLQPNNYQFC
T19 sequence (Q8IW41 whole entry): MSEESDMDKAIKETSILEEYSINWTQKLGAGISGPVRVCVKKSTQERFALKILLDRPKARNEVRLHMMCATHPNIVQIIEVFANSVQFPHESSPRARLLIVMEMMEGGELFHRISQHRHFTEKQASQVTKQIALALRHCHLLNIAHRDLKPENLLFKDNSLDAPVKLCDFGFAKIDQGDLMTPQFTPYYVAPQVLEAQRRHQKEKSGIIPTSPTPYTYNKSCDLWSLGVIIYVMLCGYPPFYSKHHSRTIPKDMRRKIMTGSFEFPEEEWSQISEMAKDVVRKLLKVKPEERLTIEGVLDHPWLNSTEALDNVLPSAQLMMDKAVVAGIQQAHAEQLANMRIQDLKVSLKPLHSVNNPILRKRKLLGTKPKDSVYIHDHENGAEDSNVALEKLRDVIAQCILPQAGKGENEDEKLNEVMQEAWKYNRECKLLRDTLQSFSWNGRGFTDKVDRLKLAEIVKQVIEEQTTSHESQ
T17 sequence (Q7L7X3 whole entry): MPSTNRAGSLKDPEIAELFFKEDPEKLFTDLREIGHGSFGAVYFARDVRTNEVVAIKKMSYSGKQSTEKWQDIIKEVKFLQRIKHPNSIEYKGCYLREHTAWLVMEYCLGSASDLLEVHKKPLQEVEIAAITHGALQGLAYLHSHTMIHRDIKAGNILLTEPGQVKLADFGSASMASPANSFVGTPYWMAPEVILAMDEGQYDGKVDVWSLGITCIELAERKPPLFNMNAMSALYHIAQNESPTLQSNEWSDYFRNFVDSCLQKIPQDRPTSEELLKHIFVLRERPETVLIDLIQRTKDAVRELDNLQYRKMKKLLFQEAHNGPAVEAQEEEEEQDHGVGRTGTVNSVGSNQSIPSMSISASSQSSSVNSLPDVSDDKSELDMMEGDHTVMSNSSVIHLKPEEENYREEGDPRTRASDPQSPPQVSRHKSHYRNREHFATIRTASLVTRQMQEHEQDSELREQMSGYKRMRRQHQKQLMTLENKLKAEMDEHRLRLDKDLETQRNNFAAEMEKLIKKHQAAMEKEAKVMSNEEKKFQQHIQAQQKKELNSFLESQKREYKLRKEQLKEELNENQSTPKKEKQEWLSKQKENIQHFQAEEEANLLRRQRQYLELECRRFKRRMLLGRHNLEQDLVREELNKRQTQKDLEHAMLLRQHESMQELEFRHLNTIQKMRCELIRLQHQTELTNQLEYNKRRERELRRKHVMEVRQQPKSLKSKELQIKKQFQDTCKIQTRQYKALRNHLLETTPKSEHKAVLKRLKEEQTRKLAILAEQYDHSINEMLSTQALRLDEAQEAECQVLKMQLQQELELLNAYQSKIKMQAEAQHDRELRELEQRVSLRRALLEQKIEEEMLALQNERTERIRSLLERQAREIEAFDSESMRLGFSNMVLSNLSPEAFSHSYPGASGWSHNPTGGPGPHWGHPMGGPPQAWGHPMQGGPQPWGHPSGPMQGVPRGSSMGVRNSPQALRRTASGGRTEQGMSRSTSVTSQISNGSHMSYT
T8 sequence (P42338 whole entry): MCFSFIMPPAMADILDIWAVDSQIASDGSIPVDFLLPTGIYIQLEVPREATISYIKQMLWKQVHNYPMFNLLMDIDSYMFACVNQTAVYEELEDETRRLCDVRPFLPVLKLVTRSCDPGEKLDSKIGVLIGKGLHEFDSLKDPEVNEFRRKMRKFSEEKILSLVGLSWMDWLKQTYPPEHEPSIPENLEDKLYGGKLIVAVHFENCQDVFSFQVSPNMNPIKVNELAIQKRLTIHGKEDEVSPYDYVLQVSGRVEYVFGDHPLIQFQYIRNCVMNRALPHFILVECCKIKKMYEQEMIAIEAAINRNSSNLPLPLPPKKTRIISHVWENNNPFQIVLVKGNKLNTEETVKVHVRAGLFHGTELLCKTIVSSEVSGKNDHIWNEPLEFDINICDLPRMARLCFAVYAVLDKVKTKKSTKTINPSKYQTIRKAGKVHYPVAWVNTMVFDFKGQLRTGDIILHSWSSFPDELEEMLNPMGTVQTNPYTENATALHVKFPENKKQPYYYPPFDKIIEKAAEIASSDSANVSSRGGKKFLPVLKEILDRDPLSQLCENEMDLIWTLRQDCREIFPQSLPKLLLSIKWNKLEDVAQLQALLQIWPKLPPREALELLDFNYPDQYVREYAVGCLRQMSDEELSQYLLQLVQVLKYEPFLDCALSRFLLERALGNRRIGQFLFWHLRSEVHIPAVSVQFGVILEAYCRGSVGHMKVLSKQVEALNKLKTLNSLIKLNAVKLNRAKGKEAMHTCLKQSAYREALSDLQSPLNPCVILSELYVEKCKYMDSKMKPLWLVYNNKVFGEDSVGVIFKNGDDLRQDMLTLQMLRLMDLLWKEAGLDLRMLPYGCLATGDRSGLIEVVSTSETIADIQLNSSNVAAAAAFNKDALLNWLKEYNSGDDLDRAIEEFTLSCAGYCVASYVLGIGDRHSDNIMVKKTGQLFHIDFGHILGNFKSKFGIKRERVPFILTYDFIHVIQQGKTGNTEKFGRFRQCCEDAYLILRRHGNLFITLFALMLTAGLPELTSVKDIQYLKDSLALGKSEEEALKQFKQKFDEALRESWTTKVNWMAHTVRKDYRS
T25 sequence (Q9UHD2 whole entry): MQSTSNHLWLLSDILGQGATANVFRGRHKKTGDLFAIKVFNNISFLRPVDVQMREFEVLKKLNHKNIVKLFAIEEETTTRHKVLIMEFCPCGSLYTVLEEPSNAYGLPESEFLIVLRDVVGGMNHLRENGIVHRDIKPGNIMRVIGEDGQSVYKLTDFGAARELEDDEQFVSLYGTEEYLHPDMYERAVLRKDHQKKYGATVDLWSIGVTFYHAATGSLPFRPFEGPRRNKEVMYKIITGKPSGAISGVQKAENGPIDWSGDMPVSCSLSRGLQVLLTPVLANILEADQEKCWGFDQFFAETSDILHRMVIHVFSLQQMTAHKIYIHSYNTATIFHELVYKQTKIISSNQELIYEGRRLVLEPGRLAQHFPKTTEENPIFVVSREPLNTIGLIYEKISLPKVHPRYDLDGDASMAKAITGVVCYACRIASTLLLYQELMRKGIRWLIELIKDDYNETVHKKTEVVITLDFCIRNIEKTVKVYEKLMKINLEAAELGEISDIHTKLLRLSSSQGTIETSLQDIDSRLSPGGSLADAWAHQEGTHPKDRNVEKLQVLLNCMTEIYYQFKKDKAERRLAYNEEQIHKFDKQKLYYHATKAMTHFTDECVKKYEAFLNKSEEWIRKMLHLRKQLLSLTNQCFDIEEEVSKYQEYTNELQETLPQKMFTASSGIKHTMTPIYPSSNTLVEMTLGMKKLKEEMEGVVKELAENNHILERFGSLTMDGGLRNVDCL
T14 sequence (Q15759 whole entry): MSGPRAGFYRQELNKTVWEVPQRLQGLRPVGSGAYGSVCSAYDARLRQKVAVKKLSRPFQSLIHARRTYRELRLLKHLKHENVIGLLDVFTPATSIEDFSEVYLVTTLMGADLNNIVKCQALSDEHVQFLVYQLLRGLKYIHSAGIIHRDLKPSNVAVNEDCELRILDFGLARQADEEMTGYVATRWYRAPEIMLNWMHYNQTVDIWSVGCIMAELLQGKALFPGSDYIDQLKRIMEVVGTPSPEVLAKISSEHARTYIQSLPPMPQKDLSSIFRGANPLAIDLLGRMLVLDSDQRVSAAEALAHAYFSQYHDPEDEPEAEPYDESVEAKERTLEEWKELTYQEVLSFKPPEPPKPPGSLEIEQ
T2 sequence (O94768 whole entry): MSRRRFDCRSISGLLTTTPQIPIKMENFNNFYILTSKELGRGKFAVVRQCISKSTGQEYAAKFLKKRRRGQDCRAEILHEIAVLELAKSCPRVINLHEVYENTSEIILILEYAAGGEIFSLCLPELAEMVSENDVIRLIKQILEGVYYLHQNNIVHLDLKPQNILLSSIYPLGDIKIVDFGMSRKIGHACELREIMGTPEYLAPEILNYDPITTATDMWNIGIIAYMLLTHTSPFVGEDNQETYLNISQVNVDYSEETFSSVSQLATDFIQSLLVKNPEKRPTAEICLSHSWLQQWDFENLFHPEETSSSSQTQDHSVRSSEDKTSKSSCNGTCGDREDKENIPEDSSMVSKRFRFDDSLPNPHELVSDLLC

Structure (SMILES): CC(C)C(=O)N1CCN(c2ccc(NC(=O)c3cc4ccccc4o3)cc2Cl)CC1 [Compound 21]
- Percent Control [1]: 76%
- Percent Control [2]: 94%
- Percent Control [3]: 92%
- Percent Control [4]: 95%
- Percent Control [5]: 79%
- Percent Control ([6]; kinase CSF1R (Entrez CSF1R)): 73%
- Percent Control ([6]; kinase CSF1R-autoinhibited (Entrez CSF1R)): 100%
- Percent Control [7]: 89%
- Percent Control [8]: 99%
- Percent Control [9]: 98%
- Percent Control [10]: 75%
- Percent Control [11]: 90%
- Percent Control [12]: 95%
- Percent Control [13]: 82%
- Percent Control [14]: 80%
- Percent Control [15]: 87%
- Percent Control [16]: 90%
- Percent Control [17]: 100%
- Percent Control [18]: 88%
- Percent Control [19]: 98%
- Percent Control [20]: 100%
- Percent Control [21]: 100%
- Percent Control [22]: 83%
- Percent Control [23]: 98%
- Percent Control [24]: 88%
- Percent Control [25]: 100%
- Percent Control [26]: 99%
